According to the kinase profiling compilation of Christmann-Franck et al. (2016):

Experiments:
Test in all cases: radiometric filter-binding kinase assay, Kinase HotSpot
Settings in all cases: compound 0.5 µM; ATP 10 µM
MAP3K5 (human) = MAP3K5 (human) (UniProt Q99683)
CSNK1A1 (human) = CSNK1A1 (human) (UniProt P48729)
STK17A (human) = STK17A (human) (UniProt Q9UEE5)
CAMKK1 (human) = CAMKK1 (human) (UniProt Q8N5S9)
ADRBK1 (human) = ADRBK1 (human) (UniProt P25098)
EPHB1 (human) = EPHB1 (human) (UniProt P54762)
MAPKAPK2 (human) = MAPKAPK2 (human) (UniProt P49137)
NEK2 (human) = NEK2 (human) (UniProt P51955)
PKN2 (human) = PKN2 (human) (UniProt Q16513)
MAP4K2 (human) = MAP4K2 (human) (UniProt Q12851)
FGR (human) = FGR (human) (UniProt P09769)
FYN (human) = FYN (human) (UniProt P06241)
PBK (human) = PBK (human) (UniProt Q96KB5)
EPHA7 (human) = EPHA7 (human) (UniProt Q15375)
PRKCB2 (human) = PRKCB2 (human) (UniProt P05771)
STK33 (human) = STK33 (human) (UniProt Q9BYT3)
IGF1R (human) = IGF1R (human) (UniProt P08069)
TBK1 (human) = TBK1 (human) (UniProt Q9UHD2)
MUSK (human) = MUSK (human) (UniProt O15146)
CLK3 (human) = CLK3 (human) (UniProt P49761)
PRKCA (human) = PRKCA (human) (UniProt P17252)
MST1R (human) = MST1R (human) (UniProt Q04912)
ROCK1 (human) = ROCK1 (human) (UniProt Q13464)
IKBKB (human) = IKBKB (human) (UniProt O14920)
MAP3K11 (human) = MAP3K11 (human) (UniProt Q16584)
RPS6KB1 (human) = RPS6KB1 (human) (UniProt P23443)
MLTK (human) = MLTK (human) (UniProt Q9NYL2)
MYLK2 (human) = MYLK2 (human) (UniProt Q9H1R3)
PRKG2 (human) = PRKG2 (human) (UniProt Q13237)
CDK3 CCNE1 (human) = CDK3 CCNE1 (human) (UniProt Q00526+P24864)
CSNK2A1 (human) = CSNK2A1 (human) (UniProt P68400)
RIPK2 (human) = RIPK2 (human) (UniProt O43353)
ERBB2 (human) = ERBB2 (human) (UniProt P04626)
PAK4 (human) = PAK4 (human) (UniProt O96013)
PLK3 (human) = PLK3 (human) (UniProt Q9H4B4)
PRKCI (human) = PRKCI (human) (UniProt P41743)
EPHA3 (human) = EPHA3 (human) (UniProt P29320)
DYRK1B (human) = DYRK1B (human) (UniProt Q9Y463)
JAK3 JH1 JH2 (human) = JAK3 JH1 JH2 (human) (UniProt P52333)
CSNK1E (human) = CSNK1E (human) (UniProt P49674)
TYRO3 (human) = TYRO3 (human) (UniProt Q06418)
IKBKE (human) = IKBKE (human) (UniProt Q14164)

Chain of PAK4 (human) (O96013 whole entry, looked up): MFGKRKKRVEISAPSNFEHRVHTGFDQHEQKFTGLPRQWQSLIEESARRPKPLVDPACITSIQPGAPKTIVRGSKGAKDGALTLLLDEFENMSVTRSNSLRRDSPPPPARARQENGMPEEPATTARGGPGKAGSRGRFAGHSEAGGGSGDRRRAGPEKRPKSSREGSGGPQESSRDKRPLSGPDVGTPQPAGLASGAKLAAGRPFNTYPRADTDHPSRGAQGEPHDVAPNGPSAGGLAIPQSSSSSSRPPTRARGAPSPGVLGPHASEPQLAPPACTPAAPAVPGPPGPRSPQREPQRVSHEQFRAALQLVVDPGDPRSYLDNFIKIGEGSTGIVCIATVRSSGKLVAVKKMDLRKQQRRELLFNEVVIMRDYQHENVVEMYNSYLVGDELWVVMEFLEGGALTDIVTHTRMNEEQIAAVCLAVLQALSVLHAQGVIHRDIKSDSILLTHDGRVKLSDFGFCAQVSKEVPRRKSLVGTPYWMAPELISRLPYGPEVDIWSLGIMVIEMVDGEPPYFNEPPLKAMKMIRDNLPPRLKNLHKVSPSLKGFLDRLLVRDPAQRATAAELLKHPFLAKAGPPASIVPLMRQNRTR
Chain of STK33 (human) (Q9BYT3 whole entry, looked up): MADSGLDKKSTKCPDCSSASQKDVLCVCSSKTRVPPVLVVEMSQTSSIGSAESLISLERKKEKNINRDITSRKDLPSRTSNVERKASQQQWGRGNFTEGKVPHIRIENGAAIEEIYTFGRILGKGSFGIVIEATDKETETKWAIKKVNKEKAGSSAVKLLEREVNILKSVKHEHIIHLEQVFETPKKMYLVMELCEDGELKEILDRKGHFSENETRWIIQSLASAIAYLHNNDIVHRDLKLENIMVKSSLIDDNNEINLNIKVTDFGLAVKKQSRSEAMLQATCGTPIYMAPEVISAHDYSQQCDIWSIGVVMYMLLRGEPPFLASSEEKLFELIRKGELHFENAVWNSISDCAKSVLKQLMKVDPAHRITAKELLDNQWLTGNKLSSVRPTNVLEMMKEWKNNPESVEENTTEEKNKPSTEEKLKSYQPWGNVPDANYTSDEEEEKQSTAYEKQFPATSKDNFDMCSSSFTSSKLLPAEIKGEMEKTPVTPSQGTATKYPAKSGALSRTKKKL
Chain of PLK3 (human) (Q9H4B4 whole entry, looked up): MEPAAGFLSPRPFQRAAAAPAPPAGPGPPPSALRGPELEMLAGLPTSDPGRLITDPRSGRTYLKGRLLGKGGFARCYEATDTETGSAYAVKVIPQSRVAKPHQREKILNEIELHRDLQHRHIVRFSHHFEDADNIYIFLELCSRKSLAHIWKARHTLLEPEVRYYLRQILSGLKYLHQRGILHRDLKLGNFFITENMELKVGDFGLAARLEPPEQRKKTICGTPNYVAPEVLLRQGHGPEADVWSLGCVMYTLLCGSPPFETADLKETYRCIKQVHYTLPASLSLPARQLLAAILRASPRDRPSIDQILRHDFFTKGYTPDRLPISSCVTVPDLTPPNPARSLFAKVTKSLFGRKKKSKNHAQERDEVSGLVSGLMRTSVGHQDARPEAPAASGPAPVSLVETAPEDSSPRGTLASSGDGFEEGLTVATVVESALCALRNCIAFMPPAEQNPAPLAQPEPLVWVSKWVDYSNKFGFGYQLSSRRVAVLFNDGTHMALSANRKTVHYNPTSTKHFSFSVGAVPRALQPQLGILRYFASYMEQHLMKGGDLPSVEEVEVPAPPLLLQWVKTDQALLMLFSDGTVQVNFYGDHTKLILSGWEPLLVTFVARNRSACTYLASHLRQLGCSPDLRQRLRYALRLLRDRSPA
Chain of CAMKK1 (human) (Q8N5S9 whole entry, looked up): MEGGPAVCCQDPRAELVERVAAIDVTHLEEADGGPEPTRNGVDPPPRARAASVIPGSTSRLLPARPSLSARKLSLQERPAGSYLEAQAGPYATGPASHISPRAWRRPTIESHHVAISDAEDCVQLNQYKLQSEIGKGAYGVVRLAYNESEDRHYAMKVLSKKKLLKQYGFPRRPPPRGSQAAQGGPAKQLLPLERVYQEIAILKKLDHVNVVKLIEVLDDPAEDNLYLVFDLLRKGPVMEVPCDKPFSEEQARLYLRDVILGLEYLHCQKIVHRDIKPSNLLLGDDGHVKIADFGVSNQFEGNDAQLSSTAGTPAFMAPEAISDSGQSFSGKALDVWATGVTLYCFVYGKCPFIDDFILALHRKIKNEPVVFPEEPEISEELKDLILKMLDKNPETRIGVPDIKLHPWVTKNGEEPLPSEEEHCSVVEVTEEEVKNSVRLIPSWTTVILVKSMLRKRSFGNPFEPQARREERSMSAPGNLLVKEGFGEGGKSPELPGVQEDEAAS
Chain of MLTK (human) (Q9NYL2 whole entry, looked up): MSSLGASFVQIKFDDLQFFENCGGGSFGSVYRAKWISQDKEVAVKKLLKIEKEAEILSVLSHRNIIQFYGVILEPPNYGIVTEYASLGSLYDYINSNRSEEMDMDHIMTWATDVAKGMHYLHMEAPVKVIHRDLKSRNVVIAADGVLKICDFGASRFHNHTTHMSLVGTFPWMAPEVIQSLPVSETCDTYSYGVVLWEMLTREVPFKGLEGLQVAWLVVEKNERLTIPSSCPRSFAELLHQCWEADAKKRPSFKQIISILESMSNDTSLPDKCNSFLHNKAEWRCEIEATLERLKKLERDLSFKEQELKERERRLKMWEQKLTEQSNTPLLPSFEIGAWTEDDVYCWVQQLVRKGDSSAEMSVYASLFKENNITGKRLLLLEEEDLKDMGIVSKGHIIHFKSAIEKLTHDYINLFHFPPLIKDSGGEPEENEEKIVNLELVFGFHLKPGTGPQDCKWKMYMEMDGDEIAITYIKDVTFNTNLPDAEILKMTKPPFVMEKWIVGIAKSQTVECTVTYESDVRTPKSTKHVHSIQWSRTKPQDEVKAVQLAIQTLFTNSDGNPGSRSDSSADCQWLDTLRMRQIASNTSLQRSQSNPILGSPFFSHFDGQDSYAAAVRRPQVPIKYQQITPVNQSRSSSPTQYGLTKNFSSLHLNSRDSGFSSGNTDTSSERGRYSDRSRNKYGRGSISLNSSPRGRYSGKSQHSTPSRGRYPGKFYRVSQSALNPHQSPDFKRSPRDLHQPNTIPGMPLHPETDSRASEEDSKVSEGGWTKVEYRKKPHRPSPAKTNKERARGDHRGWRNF
Chain of TBK1 (human) (Q9UHD2 whole entry, looked up): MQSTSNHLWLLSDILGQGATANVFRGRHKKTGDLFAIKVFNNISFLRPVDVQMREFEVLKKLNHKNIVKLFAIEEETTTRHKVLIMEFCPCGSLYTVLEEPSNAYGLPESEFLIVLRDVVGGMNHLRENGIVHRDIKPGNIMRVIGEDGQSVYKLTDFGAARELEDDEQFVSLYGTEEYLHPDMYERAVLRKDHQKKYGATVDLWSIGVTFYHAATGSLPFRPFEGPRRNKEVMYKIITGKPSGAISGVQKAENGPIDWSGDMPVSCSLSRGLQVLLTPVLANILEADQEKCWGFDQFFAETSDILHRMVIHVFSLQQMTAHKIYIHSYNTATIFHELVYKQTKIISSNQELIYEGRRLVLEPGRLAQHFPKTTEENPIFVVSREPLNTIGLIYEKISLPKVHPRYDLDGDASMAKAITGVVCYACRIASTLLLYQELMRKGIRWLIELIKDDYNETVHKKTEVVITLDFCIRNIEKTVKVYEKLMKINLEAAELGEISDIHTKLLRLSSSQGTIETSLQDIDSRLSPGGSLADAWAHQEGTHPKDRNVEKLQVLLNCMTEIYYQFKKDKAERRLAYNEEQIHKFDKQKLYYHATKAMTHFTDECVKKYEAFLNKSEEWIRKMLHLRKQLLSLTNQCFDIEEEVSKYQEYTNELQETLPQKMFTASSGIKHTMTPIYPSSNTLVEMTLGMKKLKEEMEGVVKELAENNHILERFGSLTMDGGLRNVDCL
Chain of CSNK1E (human) (P49674 whole entry, looked up): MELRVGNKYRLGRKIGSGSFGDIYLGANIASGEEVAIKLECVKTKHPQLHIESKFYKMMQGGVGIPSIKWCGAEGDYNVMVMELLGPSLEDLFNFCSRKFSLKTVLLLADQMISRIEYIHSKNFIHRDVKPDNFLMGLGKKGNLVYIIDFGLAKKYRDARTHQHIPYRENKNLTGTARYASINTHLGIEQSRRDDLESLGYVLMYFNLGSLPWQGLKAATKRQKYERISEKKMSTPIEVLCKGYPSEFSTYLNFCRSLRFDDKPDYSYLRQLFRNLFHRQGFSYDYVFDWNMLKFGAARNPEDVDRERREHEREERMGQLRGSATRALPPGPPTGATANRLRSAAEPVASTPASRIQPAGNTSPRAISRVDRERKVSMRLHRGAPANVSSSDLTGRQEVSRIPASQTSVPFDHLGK

CCCNC(=O)Nc1ccc(Oc2ncnc3cc(OC)c(OC)cc23)cc1Cl
residual activity (MAP3K5 (human)): 102% | residual activity (CSNK1A1 (human)): 98.9% | residual activity (STK17A (human)): 99% | residual activity (CAMKK1 (human)): 93.1% | residual activity (ADRBK1 (human)): 103% | residual activity (EPHB1 (human)): 95.5% | residual activity (MAPKAPK2 (human)): 101% | residual activity (NEK2 (human)): 92.3% | residual activity (PKN2 (human)): 99.2% | residual activity (MAP4K2 (human)): 83.1% | residual activity (FGR (human)): 70.2% | residual activity (FYN (human)): 92.7% | residual activity (PBK (human)): 66.2% | residual activity (EPHA7 (human)): 86.3% | residual activity (PRKCB2 (human)): 93.6% | residual activity (STK33 (human)): 88.1% | residual activity (IGF1R (human)): 77% | residual activity (TBK1 (human)): 90% | residual activity (MUSK (human)): 101% | residual activity (CLK3 (human)): 98.8% | residual activity (PRKCA (human)): 99.3% | residual activity (MST1R (human)): 89.3% | residual activity (ROCK1 (human)): 99.7% | residual activity (IKBKB (human)): 100% | residual activity (MAP3K11 (human)): 89.2% | residual activity (RPS6KB1 (human)): 90.6% | residual activity (MLTK (human)): 103% | residual activity (MYLK2 (human)): 99.9% | residual activity (PRKG2 (human)): 97% | residual activity (CDK3 CCNE1 (human)): 94% | residual activity (CSNK2A1 (human)): 105% | residual activity (RIPK2 (human)): 84.8% | residual activity (ERBB2 (human)): 116% | residual activity (PAK4 (human)): 95.7% | residual activity (PLK3 (human)): 95% | residual activity (PRKCI (human)): 93% | residual activity (EPHA3 (human)): 98.5% | residual activity (DYRK1B (human)): 104% | residual activity (JAK3 JH1 JH2 (human)): 88.9% | residual activity (CSNK1E (human)): 78.5% | residual activity (TYRO3 (human)): 102% | residual activity (IKBKE (human)): 93.5%

CC(C)n1cnc2c(Nc3cccc(Cl)c3)nc(NCCO)nc21
residual activity (MAP3K5 (human)): 114% | residual activity (CSNK1A1 (human)): 62.3% | residual activity (STK17A (human)): 96.8% | residual activity (CAMKK1 (human)): 88.2% | residual activity (ADRBK1 (human)): 96% | residual activity (EPHB1 (human)): 76.9% | residual activity (MAPKAPK2 (human)): 98.9% | residual activity (NEK2 (human)): 97.6% | residual activity (PKN2 (human)): 90.8% | residual activity (MAP4K2 (human)): 87.6% | residual activity (FGR (human)): 61.5% | residual activity (FYN (human)): 60.4% | residual activity (PBK (human)): 101% | residual activity (EPHA7 (human)): 87.1% | residual activity (PRKCB2 (human)): 99.7% | residual activity (STK33 (human)): 68.1% | residual activity (IGF1R (human)): 90% | residual activity (TBK1 (human)): 89.2% | residual activity (MUSK (human)): 58.6% | residual activity (CLK3 (human)): 77.8% | residual activity (PRKCA (human)): 78.6% | residual activity (MST1R (human)): 101% | residual activity (ROCK1 (human)): 101% | residual activity (IKBKB (human)): 102% | residual activity (MAP3K11 (human)): 51% | residual activity (RPS6KB1 (human)): 93.3% | residual activity (MLTK (human)): 96.6% | residual activity (MYLK2 (human)): 96.3% | residual activity (PRKG2 (human)): 82.7% | residual activity (CDK3 CCNE1 (human)): 76.9% | residual activity (CSNK2A1 (human)): 83.8% | residual activity (RIPK2 (human)): 84.3% | residual activity (ERBB2 (human)): 96.2% | residual activity (PAK4 (human)): 105% | residual activity (PLK3 (human)): 48.5% | residual activity (PRKCI (human)): 101% | residual activity (EPHA3 (human)): 90.3% | residual activity (DYRK1B (human)): 78.8% | residual activity (JAK3 JH1 JH2 (human)): 24.7% | residual activity (CSNK1E (human)): 65.4% | residual activity (TYRO3 (human)): 92.7% | residual activity (IKBKE (human)): 97.6%
